“And” between values parts separate entries of the source, which are not always exact repeats. Equal values may be shown once. Read-outs that look alike come from different tables or passages of the source.
Assays:
[1] = system: J774 macrophages; test: Toxicity against J774 macrophages (IC50); assay type: cell-based; settings: Mus musculus, Tables I-III, V
[2] = system: Trypanosoma brucei rhodesiense; test: Anti-protozoan data: T.b.r. IC50; assay type: cell-based; settings: read-out: T.b.r. IC50
[3] = system: L. donovani axenic amastigotes; test: In vitro anti-leishmania activity (IC50 vs. L. donovani axenic amastigotes); assay type: cell-based; settings: for IC50: Leishmania donovani; for selectivity for axenic amastigotes over J774 macrophages (fold more active against the parasites compared to the mammalian host cells): L. donovani vs. J774 macrophages
[4] = system: Mycobacterium tuberculosis; test: Compounds tested against Mycobacterium tuberculosis (MIC90); assay type: cell-based; settings: read-out: M. tb. MIC90
[5] = system: Plasmodium falciparum; test: Anti-protozoan data: P. falcip. IC50; assay type: cell-based; settings: read-out: P. falcip. IC50
[6] = in vitro
[7] = system: Trypanosoma cruzi; test: Anti-protozoan data: T. cruzi IC50; assay type: cell-based; settings: read-out: T. cruzi IC50
[8] = system: DNA; test: DNA binding ΔTm; settings: Tables VI(a), VI(c)
[9] = system: Candida albicans; test: Anti-fungal data: Candida albicans; assay type: cell-based; settings: for MFC / MIC80: strain A39; for MIC: strain A39, read-out: Candida albicans (A39) MIC100
[10] = system: Aspergillus fumigatus; test: Anti-fungal data: Aspergillus fumigatus; assay type: cell-based; settings: for MIC: strain DUMC 168.95, read-out: Aspergillus. Fumigatus (DUMC 168.95) MIC100
[11] = system: Cryptococcus neoformans; test: Anti-fungal data: Cryptococcus neoformans; assay type: cell-based; settings: for MFC / MIC80: strain H99; for MIC: strain H99, read-out: Cryptococcus neoformans (H99) MIC100
[12] = Tables VI(a), VI(c), read-out: Leishmania donovani IC50
[13] = axenic amastigotes, Tables I-V, read-out: IC50 vs. L. donovani

SMILES	melting point	IC50 [1]	IC50 ([2]; Tables VI(a), VI(c))	IC50 [3, 12]	IC50 [3, 13]	MIC90 [4]	IC50 ([5]; Tables VI(a), VI(c))	IC50 [6]	IC50 ([7]; Tables VI(a), VI(c))	MFC [9]	MIC80 [9]	MIC [9]	MIC80 ([10]; strain DUMC 168.95)	MIC [10]	other results
CC(C)NC(=N)c1ccc(OCCCOc2ccc(-c3cc4ccc(C(=N)NC(C)C)cc4o3)cc2)cc1.Cl.Cl [Compound 69, 2-(4-(3-(4-(N-Isopropylcarbamimidoyl)phenoxy)propoxy)phenyl)-N-isopropylbenzofuran-6-carboxamidine dihydrochloride]	266 to 270 °C	9900 ± 1700 nM	88.1 nM	3180 ± 190 nM	3180 ± 190 nM	0.54 µg/mL and 0.92 µM	36.6 nM	49900 nM	28400 nM						
Cl.Cl.N=C(N)c1ccc(OCCCOc2ccc(-c3cc4cc(C(=N)N)ccc4o3)cc2)cc1 [Compound 44, 2-(4-(3-(4-Carbamimidoylphenoxy)propoxy)phenyl)benzofuran-5-carboxamidine dihydrochloride]	287 to 289 °C	2700 ± 300 nM			780 ± 210 nM	0.45 µg/mL and 0.86 µM		7320 nM		10 µg/mL	≤ 1 µg/mL	≤ 1 µg/mL	10 µg/mL	> 100 µg/mL	IC50 [2]: 450 nM; DNA binding Δ Tm [8]: 18.7; IC50 [5]: 41.4 nM; IC50 [7]: 16900 nM
Cl.Cl.N=C(N)c1ccc(OCCCCCCOc2ccc(-c3cc4cc(C(=N)N)ccc4o3)cc2)cc1 [Compound 53, 2-(4-(6-(4-Carbamimidoylphenoxy)hexyloxy)phenyl)benzofuran-5-carboxamidine dihydrochloride]	310 to 311 °C	600 ± 70 nM	368 nM	650 ± 170 nM	650 ± 170 nM	3.74 µg/mL and 6.84 µM	263 nM	3290 nM	6210 nM	3.12 µg/mL	1.56 µg/mL	3.12 µg/mL	12.5 µg/mL	> 100 µg/mL	MFC [11]: 6.25 µg/mL; MIC80 [11]: 1.56 µg/mL; MIC [11]: 3.12 µg/mL
CC(C)NC(=N)c1ccc(OCCCCCOc2ccc(-c3cc4ccc(C(=N)NC(C)C)cc4o3)cc2)cc1.Cl.Cl [Compound 75, 2-(4-(5-(4-(N-Isopropylcarbamimidoyl)phenoxy)pentyloxy)phenyl)-N-isopropylbenzofuran-6-carboxamidine dihydrochloride]	255 to 257 °C	2700 ± 100 nM	557 nM	1380 ± 180 nM	1380 ± 180 nM	1.19 µg/mL and 1.92 µM	74.4 nM	10700 nM	8920 nM						
N=C(N)c1ccc(OCCCCCOc2ccc(C(=N)N)cc2)cc1 [Pentamidine, pentamidine, reference compound]		23000 ± 6000 nM			2000 ± 600 nM										
Cl.Cl.N=C(N)c1ccc(OCCCCOc2cccc(-c3cc4cc(C(=N)N)ccc4o3)c2)cc1 [Compound 35, 2-(3-(4-(4-Carbamimidoylphenoxy)butoxy)phenyl)benzofuran-5-carboxamidine dihydrochloride]	284 to 286 °C	9600 ± 1500 nM	779 nM	4450 ± 1930 nM	4450 ± 1930 nM		75.5 nM	8060 nM							
Cl.Cl.N=C(N)c1ccc(OCCCCOc2ccc(-c3cc4ccc(C(=N)N)cc4o3)cc2)cc1 [Compound 71, 2-(4-(4-(4-Carbamimidoylphenoxy)butoxy)phenyl)benzofuran-6-carboxamidine dihydrochloride]	324 to 325 °C	860 ± 200 nM	1060 nM	3220 ± 960 nM	3220 ± 960 nM	0.45 µg/mL and 0.85 µM	166 nM	14100 nM	12500 nM						
Cl.Cl.N=C(N)c1ccc(OCCCCOc2cccc(-c3cc4ccc(C(=N)N)cc4o3)c2)cc1 [Compound 59, 2-(3-(4-(4-Carbamimidoylphenoxy)butoxy)phenyl)benzofuran-6-carboxamidine dihydrochloride]	278 to 280 °C	11000 ± 2000 nM	1330 nM	5930 ± 240 nM	5930 ± 240 nM		321 nM	7570 nM							
Cl.Cl.N=C(N)c1ccc(OCCCCCOc2cccc(-c3cc4ccc(C(=N)N)cc4o3)c2)cc1 [Compound 62, 2-(3-(5-(4-Carbamimidoylphenoxy)pentyloxy)phenyl)benzofuran-6-carboxamidine dihydrochloride]	178 to 182 °C	5600 ± 300 nM	531 nM	5750 ± 60 nM	5750 ± 60 nM	0.65 µg/mL and 1.15 µM	282 nM	4120 nM	8560 nM	1.56 µg/mL	0.39 µg/mL	0.39 µg/mL	1.56 µg/mL	3.12 µg/mL	MFC [11]: 0.78 µg/mL; MIC80 [11]: 0.39 µg/mL; MIC [11]: 0.39 µg/mL; MFC ([10]; strain DUMC 168.95): > 100 µg/mL
Cl.Cl.N=C(N)c1ccc2oc(CCc3cc4cc(C(=N)N)ccc4o3)cc2c1 [Compound 8, 2-(2-(5-Amidinobenzofuran-2-yl)ethyl)benzofuran-5-carboxamidine dihydrochloride]		15000 ± 1000 nM	7.9 nM	1060 ± 180 nM	1060 ± 180 nM	5.15 µg/mL and 11.6 µM	2.5 nM	21500 nM	12300 nM	100 µg/mL	100 µg/mL	100 µg/mL	> 100 µg/mL	> 100 µg/mL	selectivity for axenic amastigotes over J774 macrophages (fold more active against the parasites compared to the mammalian host cells) [3]: 14 fold; MFC [11]: 100 µg/mL; MIC80 [11]: 100 µg/mL; MIC [11]: 100 µg/mL; DNA binding Δ Tm [8]: 6.1
Cl.Cl.c1cc(C2=NCCN2)ccc1OCCCOc1ccc(-c2cc3ccc(C4=NCCN4)cc3o2)cc1 [Compound 70, 2-(2-(4-(3-(4-(4,5-Dihydro-1H-imidazol-2-yl)phenoxy)propoxy)phenyl)benzofuran-6-yl)-4,5-dihydro-1H-imidazole dihydrochloride]	283 to 284 °C	2400 ± 100 nM	144 nM	480 ± 160 nM	480 ± 160 nM	0.86 µg/mL and 1.5 µM	41.8 nM	16800 nM	7110 nM						selectivity for axenic amastigotes over J774 macrophages (fold more active against the parasites compared to the mammalian host cells) [3]: 5 fold
Cl.Cl.c1cc(OCCCOc2ccc(C3=NCCN3)cc2)cc(-c2cc3cc(C4=NCCN4)ccc3o2)c1 [Compound 34, 2-(2-(3-(3-(4-(4,5-Dihydro-1H-imidazol-2-yl)phenoxy)propoxy)phenyl)benzofuran-5-yl) -4,5-dihydro-1H-imidazole dihydrochloride]	193 to 197 °C	7100 ± 800 nM	1170 nM	5930 ± 40 nM	5930 ± 40 nM		108 nM	6520 nM							
CC(C)NC(=N)c1ccc(OCCCCCCOc2ccc(-c3cc4ccc(C(=N)NC(C)C)cc4o3)cc2)cc1.Cl.Cl [Compound 78, 2-(4-(6-(4-(N-Isopropylcarbamimidoyl)phenoxy)hexyloxy)phenyl)-N-isopropylbenzofuran-6-carboxamidine dihydrochloride]	264 to 268 °C	730 ± 30 nM	884 nM	2620 ± 350 nM	2620 ± 350 nM	2.11 µg/mL and 3.33 µM	51.9 nM	4900 nM	3480 nM						
